± gives the expanded uncertainty stated by the source.
Conditions: 101.33 kPa, Liquid, Vibrating tube method

mass density (273 K): 800 ± 24 kg/m3 | mass density (298 K): 787 ± 24 kg/m3 | mass density (303 K): 786 ± 24 kg/m3 | mass density (313 K): 779 ± 24 kg/m3 | mass density (323 K): 768 ± 24 kg/m3
Compound: CO [methanol]

— the NIST ThermoML archive (doi:10.1021/je049712l)
